What was measured:
myeloma cell lines = experiment: Cell growth and viability, MTS assay, 72 hours; type: cell-based
Protocol: (§1) FIG. 1. […] (A) TEX and (B) M9-ENL1 cells were plated in 96-well plates and drugs were added to the wells (5 μL per well) for final concentrations of 10 μM (shown) and 1 μM. Cell growth and viability was measured at 48 hours (M9-ENL-1) and 72 hours (TEX) by MTS assay. Cell viability is shown for each compound as a percent of cells treated with DMSO alone. (C) Leukemia, (D) myeloma, and (E) solid tumor cell lines were seeded in 96-well plates and then treated with increasing concentrations of tigecycline. Cell growth and viability was measured at 72 hours by MTS assay. Cell viability is expressed as mean percentage plus or minus SD (n=3) relative to vehicle-treated cells. […] Cell viability was measured at 72 hours by MTS assay. Cell viability is expressed as mean percentage plus or minus SD (n=3) relative to vehicle-treated cells.
(§2) Human leukemia (OCI-AML2, HL60, U937) cell lines were maintained in RPMI 1640 medium. Myeloma (LP-1, KMS11, 8226, JJN3, OP-M2) cell lines were maintained in Iscove's media. Ovarian (OVCAR), prostate (PC3), and lung alveolar (A549) cell lines were maintained in RPMI 1640 medium. Media was supplemented with 10% fetal calf serum (FCS), […] (all from Hyclone, Logan, Utah). TEX cells were maintained in IMDM, 15% FBS, 2 mM L-glutamine, 1%, penicillin-streptomycin, 20 ng/mL SCF, 2 ng/mL IL-3. M9-ENL1 cells were maintained in alpha-MEM, 20% FBS, 5% human plasma, 2 mM L-glutamine, 1%, penicillin-streptomycin, 100 ng/mL SCF, 10 ng/mL IL-3, 5 ng/mL IL-7, and 5 ng/mL FLT3L. All cells were incubated at 37° C. in a humidified air atmosphere supplemented with 5% CO2.
(§3) Cell growth and viability was assessed by the MTS assay (Promega, Madison, Wis.) according to the manufacturer's instructions. Apoptosis and cell death was measured by Annexin V-fluoroscein isothiocyanate (FITC; Biovision Research Products, Mountain View, Calif.), propidium iodide staining and flow cytometry according to the manufacturer's instructions and as previously described^30.

solid tumour cell lines = experiment: Cell growth and viability, MTS assay, 72 hours; type: cell-based
Protocol: as §1, §2, §3

leukemia cell lines = experiment: Cell growth and viability, MTS assay, 72 hours; type: cell-based; details: tested leukemia cell lines
Protocol: as §1, §2, §3

TEX cells [1] = experiment: ROS generation, DCF-DA and DHE staining; type: cell-based, human; details: time-points up to 24 hours
Protocol: FIG. 4. […] (A) Cells from TEX, OCI-AML2 and two primary AML patients were treated with increasing concentrations (2.5 μM and 5 μM) of tigecycline for 36 and 48 hours of tigecycline. Total proteins were extracted and analyzed by western blotting for Cox-1, Cox-2, Cox-4, grp78, XIAP, actin and tubulin. (B) TEX and AML patient cells were treated with increasing concentrations (2.5 μM and 5 μM) of tigecycline. Cox-1, Cox-2, and Cox-4 mRNA expression relative 18S was determined by quantitative RT-PCR. Data is shown as mean±SD. (C) TEX cells were treated with increasing concentrations of tigecycline and chloramphenicol (CAP) for 72 hours. Complex I, II and IV enzyme activity relative to citrate synthase activity was determined as described in materials and methods. (D) Cells from TEX, primary AML patients, and normal donors were treated with increasing concentrations of tigecycline. Mitochondrial membrane potential (Δψ) was determined by staining cells with JC-1 dye, and flow cytometry analysis (Red/Green ratio). Reactive oxygen species generation (ROS) was determined by staining with h2-DCFDA and Dihydroethidium (DHE).
A byproduct of the mitochondrial enzyme activities of the electron transport chain is the generation of reactive oxygen species (ROS). […] Therefore, the role of tigecycline on ROS generation in leukemia cells by analyzing hydrogen peroxide ions (H2O2) using a dichlorofluorescein dye (DCF-DA), and superoxide anions using dihydroethidium (DHE) was examined.

TEX cells [2] = experiment: Apoptosis by Annexin V flow cytometry; type: cell-based, human; details: over time
Protocol: as §1, §3

TEX cells [3] = experiment: Chemical library screen, MTS assay; type: cell-based, human; details: 10 μM, 72 hours
From the text: (§4) To identify compounds active against leukemia stem cells, a library of drugs (n=312) with well-characterized pharmacokinetics and toxicology and a wide therapeutic window was compiled. This library was then screened to identify agents that reduced the viability of TEX and M9-ENL1 cells. TEX and M9-ENL1 cells were derived from lineage-depleted human cord blood cells (Lin-CB) transduced with TLS-ERG or MLL-ENL oncogenes, respectively, and, as shown previously, display properties of stem cells including hierarchal differentiation and marrow repopulation^14,16. In this screen, TEX and M9-ENL1 cells were treated with aliquots of the compounds. After incubation, cell growth and viability was measured by the MTS assay. From this screen, tigecycline was identified.
(§5) TEX, and M9-ENL-1 cells were seeded into 96-well polystyrene tissue culture plates (Corning). […] 72 (TEX) and 48 (M9-ENL-1) hours after incubation, cell growth and viability was measured by MTS assay. […]
as §3, with “described^30. […]” for “described^30.”

M9-ENL1 cells = experiment: Chemical library screen, MTS assay; type: cell-based, human; details: 10 μM, 48 hours
From the text: as §4, §5
as §3, with “described^30. […]” for “described^30.”

[4] = rat, in vivo, 30 mg/kg/day; cited from earlier work

## CN(C)c1cc(NC(=O)CNC(C)(C)C)c(O)c2c1C[C@H]1C[C@H]3[C@H](N(C)C)C(O)=C(C(N)=O)C(=O)[C@@]3(O)C(O)=C1C2=O [tigecycline]
Myeloma cell lines
  IC50: > 10 µM
Solid tumour cell lines
  IC50: > 10 µM
Leukemia cell lines
  IC50: 5 to 8 µM
TEX cells [1]
  ROS generation: no observed increase in ROS generation
TEX cells [2]
  apoptosis, percentage of cells labeled by Annexin V: time-dependent increases in apoptosis
TEX cells [3]
  screen result, cell growth and viability: identified
M9-ENL1 cells
  screen result, cell growth and viability: identified
[4]
  toxicology findings: reversible anemia, thrombocytopenia, and leucopenia with a hypocellular bone marrow

From patent US20120329761A1, “USE OF TIGECYCLINE FOR TREATMENT OF CANCER” (UNIVERSITY HEALTH NETWORK, priority 2010, published 2012)
